From ChEMBL document CHEMBL1130996, “A depsipeptide fungal metabolite inhibitor of cholesteryl ester transfer protein” (Bioorg Med Chem Lett, 1998)
Blank lines part the entries; values can stand above or below the molecule they belong to.

Experiments:
[1] = biological target: T1, Cholesteryl ester transfer protein (Homo sapiens, UniProt P11597); assay: Compound was evaluated for inhibitory activity against cholesteryl ester transfer protein; Inactive
T1 sequence (P11597 whole entry): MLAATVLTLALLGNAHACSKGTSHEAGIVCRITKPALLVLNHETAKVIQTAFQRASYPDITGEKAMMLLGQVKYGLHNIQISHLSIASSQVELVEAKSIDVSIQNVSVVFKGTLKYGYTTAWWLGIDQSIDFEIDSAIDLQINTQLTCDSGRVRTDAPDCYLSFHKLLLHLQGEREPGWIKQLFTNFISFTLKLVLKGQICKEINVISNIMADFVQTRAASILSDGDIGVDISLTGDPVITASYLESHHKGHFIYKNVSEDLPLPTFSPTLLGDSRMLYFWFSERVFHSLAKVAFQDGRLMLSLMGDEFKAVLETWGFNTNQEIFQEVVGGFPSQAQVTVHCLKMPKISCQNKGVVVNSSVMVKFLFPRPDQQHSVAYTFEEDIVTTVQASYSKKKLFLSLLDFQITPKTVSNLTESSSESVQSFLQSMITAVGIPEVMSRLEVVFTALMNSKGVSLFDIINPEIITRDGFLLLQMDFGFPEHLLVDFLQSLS

[2] = biological target: T1, Cholesteryl ester transfer protein; assay: Compound was evaluated for inhibitory activity against cholesteryl ester transfer protein
[3] = biological target: T1, Cholesteryl ester transfer protein; assay: Compound was evaluated for inhibitory activity against cholesteryl ester transfer protein, reported from sponge
[4] = biological target: T1, Cholesteryl ester transfer protein; assay: Compound was evaluated for inhibitory activity against cholesteryl ester transfer protein, reported from fungus; set-up: species or system Fungi
[5] = biological target: T1, Cholesteryl ester transfer protein; assay: Compound was evaluated for inhibitory activity against cholesteryl ester transfer protein-SPA assay; Inactive

IC50 [1]: Not Active
Compound: CCCCC(C)/C=C/C(=O)N[C@@H](Cc1ccccc1)C(=O)N[C@@H](C)C(=O)N[C@@H](CC(C)C)C(=O)O (stereo not given in full)

IC50 [2]: 50 µM
IC50 [3]: 0.3 µM
IC50 [4]: 40 µM
Compound: CCCCC(C)C1CC(=O)N[C@@H](Cc2ccccc2)C(=O)N[C@@H](C)C(=O)N[C@@H](CC(C)C)C(=O)O1 (stereo not given in full)

IC50 [5]: Not Active
Compound: CCCCC(C)C(O)CC(=O)N[C@@H](Cc1ccccc1)C(=O)N[C@@H](C)C(=O)N[C@@H](CC(C)C)C(=O)O (stereo not given in full)
